Data reported in EP4803513A1, “SUBSTITUTED QUINAZOLINE COMPOUND, PREPARATION METHOD THEREFOR, PHARMACEUTICAL COMBINATION THEREOF, AND USE THEREOF” (Hongyun Biotech Co., Ltd., priority 2023, dated 2025).
pIC50: −log10 of the molar value.

How the values were obtained:
Type in all cases: cell-based
BRK-BaF3 cells = assay: Cell antiproliferative activity assay (CCK-8), BRK-BaF3; settings: 72 h, CCK-8, 3 days incubation
Procedure, shortened: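 Growth inhibition over 3 days, with compound serially diluted 3-fold from a 10 µM top concentration. Cells seeded at 100,000 cells/mL; WT-BaF3 medium carried 10% WEHI supernatant as the IL-3 source. Viability read by CCK-8 OD450 after 2-4 h; IC50 from blank-subtracted curve fit.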

WT-BaF3 cells = assay: Cell antiproliferative activity assay (CCK-8), WT-BaF3 (broad-spectrum cytotoxicity); settings: 72 h; WT-BaF3 cells (IL-3 supplemented), CCK-8, 3 days incubation
Experimental: The activity of compounds against BRK kinase can be evaluated by their inhibition of the growth of the BRK kinase-stably transfected BaF3 cell line (BRK-BaF3) and wild-type BaF3 cells (WT-BaF3). […] The larger the ratio of the half-maximal growth inhibitory concentration (IC50) of a compound between WT-BaF3 and BRK-BaF3 cells, the better the selectivity of the compound.
(§1) BRK-BaF3, WT-BaF3, WEHI cell line, and breast cancer cell line T47D were cultured using RPMI 1640 Basal medium or DMEM (Dulbecco's Modified Eagle Medium) (Shanghai Peiyuan Biotechnology, L220KJ), supplemented with 10% FBS (Gibco, REF 10099-141C) and 1% P/S (Shanghai Peiyuan Biotechnology, S110JV), in an incubator (Thermo 3020) at 37°C with 5% CO2. Cell viability was above 95%. Cells were passaged at a 3:1 ratio every 3-4 days. For WT-BaF3 cells, WEHI cells were first cultured, and their culture supernatant was filtered through a 0.22 µm filter. This supernatant was added at 10% to the regular culture medium to supplement IL-3 required for WT-BaF3 cell proliferation, which served as the culture medium for WT-BaF3. For testing, cells were first collected and counted, then prepared into a cell suspension at 100,000 cells/mL and plated at 100 µL per well. Drug concentrations started from 10 µM and were serially diluted 3:1. After incubation for 3 days, 20 µL of CCK-8 detection reagent (Targetmol C005) was added to each well. After incubation for 2-4 hours, OD450 was measured using a microplate reader (Varioskan LUX, Thermo Scientific). After subtracting the blank background, the curve was fitted and the IC50 was calculated using XLfit software.

T47D cells = assay: Cell antiproliferative activity assay (CCK-8), T47D; settings: Homo sapiens, 72 h, breast cancer cell line T47D, incubation for 3 days
Experimental: as §1
In addition, the following table exemplarily lists the IC50 values of some compounds of the present invention against T47D cells.

SMILES | pIC50 (BRK-BaF3 cells) | pIC50 (WT-BaF3 cells) | pIC50 (T47D cells)
Cc1nn(CCO)cc1Nc1ncc2cc(-c3c(C)ncnc3C)cc(C3CC3)c2n1 [I-147] | ≥ 7.70 | 5.60 to 6.30 | 6.00 to 6.30
Cc1c[nH]c(=O)cc1-c1cc(C(C)C)c2nc(Nc3cn(C)nc3C(F)F)ncc2c1 [III-4] | ≥ 7.70 | 5.60 to 6.30 | 6.00 to 6.30
[2H]C([2H])([2H])n1cc(Nc2ncc3cc(-c4nccnc4C)cc(C(C)C)c3n2)c(C)n1 [III-103] | ≥ 7.70 | 6.30 to 7.00 | ≥ 6.30
Cc1nn(CCO)cc1Nc1ncc2cc(-c3ccnc(N)c3)cc(C(C)C)c2n1 [I-14] | ≥ 7.70 | 5.60 to 6.30 | 6.00 to 6.30
COc1cc(Nc2ncc3cc(-c4cccnc4)cc(C4CC4)c3n2)ccc1P(C)(C)=O [II-65] |  |  | ≥ 6.30
COc1cc(Nc2ncc3cc(-c4cnccc4C)cc(C4CC4)c3n2)ccc1P(C)(C)=O [II-66] |  |  | ≥ 6.30
Cc1ncc(F)cc1-c1cc(C(C)C)c2nc(Nc3cnn(CCO)c3)ncc2c1 [I-52] | ≥ 7.70 | < 5.60 | 
COc1cc(P(C)(C)=O)ncc1Nc1ncc2cc(-c3c(C)ncnc3C)cc(C(C)C)c2n1 [II-44] | 7.00 to 7.70 | < 5.60 | 
Cc1ncnc(C)c1-c1cc(C(C)C)c2nc(Nc3ccc(P(C)(C)=O)nc3)ncc2c1 [II-42] | 7.00 to 7.70 | < 5.60 | 
Cc1nn(CCCO)cc1Nc1ncc2cc(-c3nccnc3C)cc(C(C)C)c2n1 [I-100] | ≥ 7.70 | 5.60 to 6.30 | 
Cc1nn(CCO)cc1Nc1ncc2cc(-c3ccncc3F)cc(C(C)C)c2n1 [I-11] | ≥ 7.70 | 5.60 to 6.30 | 
Cc1nn(CCO)cc1Nc1ncc2cc(-c3nnccc3C#N)cc(C3CC3)c2n1 [I-118] | 7.00 to 7.70 | < 5.60 | 
Cc1ccc(C#N)cc1-c1cc(C(C)C)c2nc(Nc3cnn(CCO)c3C)ncc2c1 [I-170] | ≥ 7.70 | < 5.60 | 
COc1cc(P(C)(C)=O)ccc1Nc1ncc2cc(-c3c(C)ncnc3C)cc(C(C)C)c2n1 [II-53] | 7.00 to 7.70 | < 5.60 | 
Cc1ncnc(C)c1-c1cc(C(C)C)c2nc(Nc3cn(CCO)nc3Cl)ncc2c1 [I-143] | 7.00 to 7.70 | < 5.60 | 
Cc1nn(CCO)cc1Nc1ncc2cc(-c3cncnc3C)cc(C(F)(F)F)c2n1 [I-152] | ≥ 7.70 | < 5.60 | 
Cc1cnc(C)c(-c2cc(C(C)C)c3nc(Nc4cn(CCO)nc4C)ncc3c2)n1 [I-96] | 7.00 to 7.70 | < 5.60 | 
Cc1cn(C)nc1-c1cc(C(C)C)c2nc(Nc3cn(CCO)nc3C)ncc2c1 [I-190] | ≥ 7.70 | 5.60 to 6.30 | 
Cc1nn(CC(N)=O)cc1Nc1ncc2cc(-c3cccnc3C)cc(C(C)C)c2n1 [III-128] | ≥ 7.70 | < 5.60 | 
Cc1nn(CCO)cc1Nc1ncc2cc(-c3cncc(N)n3)cc(C(C)C)c2n1 [I-93] | 7.00 to 7.70 | < 5.60 | 
Cc1cnc(F)cc1-c1cc(C(C)C)c2nc(Nc3cn(CCO)nc3C)ncc2c1 [I-17] | ≥ 7.70 | 5.60 to 6.30 | 

SMILES | pIC50 (BRK-BaF3 cells) | pIC50 (WT-BaF3 cells) | pIC50 (T47D cells)
Cc1nccnc1-c1cc(C2CC2)c2nc(Nc3cnn(CCO)c3)ncc2c1 [I-107] | ≥ 7.70 | 5.60 to 6.30 | 
Cc1nn(C)cc1Nc1ncc2cc(-c3c(C#N)cnn3C)cc(C(C)C)c2n1 [III-86] | ≥ 7.70 | < 5.60 | 
Cc1nn(C2COC2)cc1Nc1ncc2cc(-c3c(C)ncnc3C)cc(C3CC3)c2n1 [III-98] | 7.00 to 7.70 | 5.60 to 6.30 | 
COc1cc(Nc2ncc3cc(-c4nccnc4C)cc(C(C)C)c3n2)cc(OC)c1P(C)(C)=O [II-73] | ≥ 7.70 | 5.60 to 6.30 | 
Cc1nccnc1-c1cc(C(F)(F)F)c2nc(Nc3cnn(CCO)c3)ncc2c1 [I-110] | ≥ 7.70 | < 5.60 | 
Cc1nn(CCO)cc1Nc1ncc2cc(-c3ncccc3F)cc(C(C)C)c2n1 [I-2] | ≥ 7.70 | < 5.60 | 
Cc1nccnc1-c1cc(C(C)C)c2nc(Nc3ccc(P(C)(C)=O)c(Cl)c3F)ncc2c1 [II-17] | ≥ 7.70 | 5.60 to 6.30 | 
COc1ncnc(C)c1-c1cc(C(C)C)c2nc(Nc3cn(CCO)nc3C)ncc2c1 [I-131] | ≥ 7.70 | < 5.60 | 
Cc1nn(CC(C)(C)O)cc1Nc1ncc2cc(-c3c(C)ncnc3C)cc(C(C)C)c2n1 [I-144] | ≥ 7.70 | < 5.60 | 
Cc1nccnc1-c1cc(C(C)C)c2nc(Nc3cn(CCO)nc3C(F)F)ncc2c1 [I-99] | ≥ 7.70 | 5.60 to 6.30 | 
COc1nc(P(C)(C)=O)ccc1Nc1ncc2cc(-c3nccnc3C)cc(C3CC3)c2n1 [II-32] | ≥ 7.70 | 5.60 to 6.30 | 
COc1nccnc1-c1cc(C(C)C)c2nc(Nc3cn(CCO)nc3C)ncc2c1 [I-82] | 7.00 to 7.70 | 5.60 to 6.30 | 
COc1cccnc1-c1cc(C(C)C)c2nc(Nc3cn(CCO)nc3C)ncc2c1 [I-4] | ≥ 7.70 | < 5.60 | 
Cc1nn(CCO)cc1Nc1ncc2cc(-c3cnccc3C#N)cc(C(C)C)c2n1 [I-34] | ≥ 7.70 | < 5.60 | 
Cc1nccnc1-c1cc(C(C)C)c2nc(Nc3cnn(CCO)c3)ncc2c1 [I-97] | ≥ 7.70 | 5.60 to 6.30 | 
Cc1ncnc(C)c1-c1cc(C(C)C)c2nc(Nc3ccc(P(C)(C)=O)c(C)c3F)ncc2c1 [II-56] | ≥ 7.70 | < 5.60 | 
Cc1nn(CCCO)cc1Nc1ncc2cc(-c3c(C)ncnc3C)cc(C(C)C)c2n1 [I-142] | ≥ 7.70 | < 5.60 | 
Cc1c[nH]c(=O)cc1-c1cc(C(C)C)c2nc(Nc3cnn(CCO)c3C)ncc2c1 [I-181] | 7.00 to 7.70 | < 5.60 | 
Cc1ccnc(C)c1-c1cc(C(F)(F)F)c2nc(Nc3cn(CCO)nc3C)ncc2c1 [I-77] | ≥ 7.70 | 5.60 to 6.30 | 
CCN(C)CCn1cc(Nc2ncc3cc(-c4nccnc4C)cc(C(C)C)c3n2)c(C)n1 [III-109] | ≥ 7.70 | < 5.60 | 
CCc1cc(P(C)(C)=O)ccc1Nc1ncc2cc(-c3nccnc3C)cc(C(C)C)c2n1 [II-15] | ≥ 7.70 | < 5.60 | 

SMILES | pIC50 (BRK-BaF3 cells) | pIC50 (WT-BaF3 cells) | pIC50 (T47D cells)
Cc1nn(CCO)cc1Nc1ncc2cc(-c3ccccn3)cc(C(C)C)c2n1 [I-1] | ≥ 7.70 | 5.60 to 6.30 | 
Cc1cc(Nc2ncc3cc(-c4nccnc4C)cc(C(C)C)c3n2)c(F)cc1P(C)(C)=O [II-21] | ≥ 7.70 | 5.60 to 6.30 | 
Cc1nn(CCO)cc1Nc1ncc2cc(-c3c(Cl)ccnc3Cl)cc(C(C)C)c2n1 [I-44] | ≥ 7.70 | 5.60 to 6.30 | 
Cc1cncnc1-c1cc(C2CC2)c2nc(Nc3cn(CCO)nc3C)ncc2c1 [I-148] | ≥ 7.70 | < 5.60 | 
Cc1nn(C2COC2)cc1Nc1ncc2cc(-c3c(C)ncnc3C)cc(C(C)C)c2n1 [III-95] | 7.00 to 7.70 | 5.60 to 6.30 | 
Cc1nn(CCO)cc1Nc1ncc2cc(-c3cn(C)nc3C)cc(C(C)C)c2n1 [I-188] | ≥ 7.70 | 5.60 to 6.30 | 
Cc1nn(CCO)cc1Nc1ncc2cc(-c3cccnc3C#N)cc(C(C)C)c2n1 [I-26] | ≥ 7.70 | < 5.60 | 
COc1cc(Nc2ncc3cc(-c4c(C)ncnc4C)cc(C(C)C)c3n2)ccc1P(C)(C)=O [II-54] | ≥ 7.70 | < 5.60 | 
Cc1nn(CCO)cc1Nc1ncc2cc(-c3c(C)ncnc3C)cc(C(C)C)c2n1 [I-128] | ≥ 7.70 | < 5.60 | 
Cc1nn(CCO)cc1Nc1ncc2cc(-c3c(C)ncnc3C)cc(C(F)(F)F)c2n1 [I-150] | ≥ 7.70 | < 5.60 | 
Cc1nn(CCO)cc1Nc1ncc2cc(-c3ncnc(C)c3Br)cc(C(C)C)c2n1 [I-139] | ≥ 7.70 | 5.60 to 6.30 | 
Cc1ccnnc1-c1cc(C(F)(F)F)c2nc(Nc3cn(CCO)nc3C)ncc2c1 [I-122] | ≥ 7.70 | 5.60 to 6.30 | 
COc1ccncc1-c1cc(C(C)C)c2nc(Nc3cn(CCO)nc3C)ncc2c1 [I-33] | ≥ 7.70 | < 5.60 | 
Cc1cnn(C)c1-c1cc(C(C)C)c2nc(Nc3cn(CCO)nc3C)ncc2c1 [I-191] | ≥ 7.70 | 5.60 to 6.30 | 
Cc1nn(CCO)cc1Nc1ncc2cc(-c3c(F)ccnc3Cl)cc(C(C)C)c2n1 [I-45] | ≥ 7.70 | < 5.60 | 
Cc1nn(CCO)cc1Nc1ncc2cc(-c3nccnc3F)cc(C(C)C)c2n1 [I-79] | ≥ 7.70 | 5.60 to 6.30 | 
Cc1c[nH]c(=O)cc1-c1cc(C(C)C)c2nc(Nc3cnn(C4COC4)c3C)ncc2c1 [III-41] | ≥ 7.70 | < 5.60 | 
COc1cc(P(C)(C)=O)ncc1Nc1ncc2cc(-c3nccnc3C)cc(C(C)C)c2n1 [II-5] | ≥ 7.70 | < 5.60 | 
Cc1cc(P(C)(C)=O)ncc1Nc1ncc2cc(-c3c(C)ncnc3C)cc(C(C)C)c2n1 [II-43] | 7.00 to 7.70 | < 5.60 | 
